Source: patent US20230114728A1 (Venatorx Pharmaceuticals, Inc., priority 2019, published 2023)
Values after ≈ are worked out from the molar mass of the structure shown.

Legend:
Type in all cases: cell-based
[1] = system: K. pneumoniae 848844 producing SHV-11 and KPC-2; assay: Broth microdilution MIC in CAMHB; settings: Klebsiella pneumoniae, read-out: Minimum Inhibitory Concentration, K. pneumoniae 848844
In short: (§1)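 Per CLSI broth microdilution, colonies were grown 3-5 h at 37° C in cation-adjusted Mueller Hinton broth, then diluted to a starting inoculum of 2-8×10^5 CFU/mL against 2-fold serial compound dilutions. Plates were incubated 16-20 h at 37° C, and MIC was read visually as the lowest concentration with no growth.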

P. aeruginosa ATCC 35151 = assay: Broth microdilution MIC in CAMHB; settings: Pseudomonas aeruginosa, ATCC35151; MHB; hyper-permeable strain; read-out: Minimum Inhibitory Concentration, P. aeruginosa ATCC 35151
In short: as §1

[2] = system: P. aeruginosa (ΔmexAB-oprM); assay: Broth microdilution MIC in CAMHB; settings: Pseudomonas aeruginosa, read-out: Minimum Inhibitory Concentration, P. aeruginosa ΔmexAB-OprM
In short: as §1

A. baumannii ATCC 19606 = assay: Broth microdilution MIC in CAMHB; settings: Acinetobacter baumannii, ATCC19606; MHB; read-out: Minimum Inhibitory Concentration, A. baumannii ATCC 19606
In short: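 CLSI microdilution; CAMHB; inoculum 2-8×10^5 CFU/mL from 3-5 h 37° C culture; 2-fold compound series; 16-20 h, 37° C; MIC = lowest well without visible growth.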

[3] = system: K. pneumoniae SI-117 producing VIM-1; assay: Broth microdilution MIC in CAMHB; settings: Klebsiella pneumoniae, read-out: Minimum Inhibitory Concentration, K. pneumoniae SI-117
In short: as §1

P. aeruginosa ATCC 27853 = assay: Broth microdilution MIC in CAMHB; settings: Pseudomonas aeruginosa, ATCC27853; MHB; read-out: Minimum Inhibitory Concentration, P. aeruginosa ATCC 27853
In short: as §1

[4] = system: K. pneumoniae UMM producing SHV-5 and KPC-2; assay: Broth microdilution MIC in CAMHB; settings: Klebsiella pneumoniae, read-out: Minimum Inhibitory Concentration, K. pneumoniae UMM
In short: as §1

E. coli D22 = assay: Broth microdilution MIC in CAMHB; settings: Escherichia coli; E. coli D22 (hyper-permeable); MHB; read-out: Minimum Inhibitory Concentration, E. coli D22
In short: as §1

E. coli 901C = assay: Broth microdilution MIC in CAMHB; settings: Escherichia coli; E. coli 901C (hyper-permeable); MHB; read-out: Minimum Inhibitory Concentration, E. coli 901C
In short: as §1

E. coli ATCC 25922 = assay: Broth microdilution MIC in CAMHB; settings: Escherichia coli, ATCC25922; E. coli ATCC 25922; MHB; read-out: Minimum Inhibitory Concentration, E. coli 25922
In short: as §1

E. coli AG100A = assay: Broth microdilution MIC in CAMHB; settings: Escherichia coli, read-out: Minimum Inhibitory Concentration, E. coli AG100A
In short: as §1

E. coli AG100 = assay: Broth microdilution MIC in CAMHB; settings: Escherichia coli; E. coli AG100 (wild-type parent); MHB; read-out: Minimum Inhibitory Concentration, E. coli AG100
In short: as §1

N. gonorrhoeae WHO Z = assay: Liquid broth MIC in Fastidious broth; settings: Neisseria gonorrhoeae, read-out: Minimum Inhibitory Concentration, N. gonorrhoeae WHO Z
In short: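 MIC = lowest concentration giving <10% growth relative to untreated wells, scored by eye after ~24 h at 36 °C, 5% CO2. Strains carry mosaic PBP2; inoculum 5×10^5 CFU/mL in Fastidious broth with 2-fold serial compound dilutions.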

Structure (SMILES) | MIC [1] [µg/mL] | MIC (P. aeruginosa ATCC 35151) [µg/mL] | MIC [2] [µg/mL] | MIC (A. baumannii ATCC 19606) [µg/mL] | MIC [3] [µg/mL] | MIC (P. aeruginosa ATCC 27853) [µg/mL] | MIC [4] [µg/mL] | MIC (E. coli D22) [µg/mL] | MIC (E. coli 901C) [µg/mL] | MIC (E. coli ATCC 25922) [µg/mL] | MIC (E. coli AG100A) [µg/mL] | MIC (E. coli AG100) [µg/mL] | MIC (N. gonorrhoeae WHO Z) [µg/mL]
NCCN1CCN(C(=O)NC(C(=O)N[C@H]2Cc3cccc(C(=O)O)c3OB2O)c2cc(Cl)c(O)cc2F)C(=O)C1=O (stereo partly drawn) [Example 87, (3R)-3-(2-(4-(2-aminoethyl)-2,3-dioxopiperazine-1-carboxamido)-2-(5-chloro-2-fluoro-4-hydroxyphenyl)acetamido)-2-hydroxy-3,4-dihydro-2H-benzo[e][1,2]oxaborinine-8-carboxylic acid] | 32 to 64 (≈ 54.1 to 108 µM) | 0.5 to 1 (≈ 0.845 to 1.69 µM) | 8 to 16 (≈ 13.5 to 27 µM) | > 128 | 32 to 64 (≈ 54.1 to 108 µM) | > 128 | 8 to 16 (≈ 13.5 to 27 µM) | 2 to 4 (≈ 3.38 to 6.76 µM) | < 0.25 | 8 to 16 (≈ 13.5 to 27 µM) | 0.5 to 1 (≈ 0.845 to 1.69 µM) | 8 to 16 (≈ 13.5 to 27 µM) | > 64
NCCN1CCN(C(=O)N[C@H](C(=O)N[C@H]2Cc3cccc(C(=O)O)c3OB2O)c2ccc(O)cc2Cl)C(=O)C1=O (single isomer, unassigned) [Example 85] | > 128 | 2 to 4 (≈ 3.49 to 6.97 µM) | 32 to 64 (≈ 55.8 to 112 µM) | > 128 | > 128 | > 128 | > 128 | 32 to 64 (≈ 55.8 to 112 µM) | 8 to 16 (≈ 13.9 to 27.9 µM) | > 128 | 32 to 64 (≈ 55.8 to 112 µM) | > 128 | > 64
CCN1CCN(C(=O)NC(C(=O)N[C@H]2Cc3cccc(C(=O)O)c3OB2O)c2cccc(NC(=O)c3ccc(O)c(O)c3Cl)c2)C(=O)C1=O (stereo partly drawn) [Example 73, (3R)-3-(2-(3-(2-chloro-3,4-dihydroxybenzamido)phenyl)-2-(4-ethyl-2,3-dioxopiperazine-1-carboxamido)acetamido)-2-hydroxy-3,4-dihydro-2H-benzo[e][1,2]oxaborinine-8-carboxylic acid] | 8 to 16 (≈ 11.5 to 23.1 µM) | 0.5 to 1 (≈ 0.721 to 1.44 µM) | 0.5 to 1 (≈ 0.721 to 1.44 µM) | 0.5 to 1 (≈ 0.721 to 1.44 µM) | 8 to 16 (≈ 11.5 to 23.1 µM) | 2 to 4 (≈ 2.88 to 5.76 µM) | 0.5 to 1 (≈ 0.721 to 1.44 µM) | 2 to 4 (≈ 2.88 to 5.76 µM) | < 0.25 | 2 to 4 (≈ 2.88 to 5.76 µM) | 2 to 4 (≈ 2.88 to 5.76 µM) | 2 to 4 (≈ 2.88 to 5.76 µM) | > 64
NC(=O)c1ccc(C(NC(=O)N2CCN(CCF)C(=O)C2=O)C(=O)N[C@H]2Cc3cccc(C(=O)O)c3OB2O)cc1O (stereo partly drawn) [Example 46, (3R)-3-(2-(4-carbamoyl-3-hydroxyphenyl)-2-(4-(2-fluoroethyl)-2,3-dioxopiperazine-1-carboxamido)acetamido)-2-hydroxy-3,4-dihydro-2H-benzo[e][1,2]oxaborinine-8-carboxylic acid] | > 128 | < 0.25 | 2 to 4 (≈ 3.42 to 6.83 µM) | > 128 | 32 to 64 (≈ 54.7 to 109 µM) | > 128 | 32 to 64 (≈ 54.7 to 109 µM) | < 0.25 | 2 to 4 (≈ 3.42 to 6.83 µM) | 32 to 64 (≈ 54.7 to 109 µM) | 2 to 4 (≈ 3.42 to 6.83 µM) | 32 to 64 (≈ 54.7 to 109 µM) | 16 to 32 (≈ 27.3 to 54.7 µM)
CCN1CCN(C(=O)NC(C(=O)N[C@H]2Cc3ccc(F)c(C(=O)O)c3OB2O)c2nc(N)sc2F)C(=O)C1=O (stereo partly drawn) [Example 18, (3R)-3-(2-(2-amino-5-fluorothiazol-4-yl)-2-(4-ethyl-2,3-dioxopiperazine-1-carboxamido)acetamido)-7-fluoro-2-hydroxy-3,4-dihydro-2H-benzo[e][1,2]oxaborinine-8-carboxylic acid] | 32 to 64 (≈ 56.5 to 113 µM) | 0.5 to 1 (≈ 0.883 to 1.77 µM) | 8 to 16 (≈ 14.1 to 28.3 µM) | > 128 | 32 to 64 (≈ 56.5 to 113 µM) | > 128 | 8 to 16 (≈ 14.1 to 28.3 µM) | 2 to 4 (≈ 3.53 to 7.06 µM) | 0.5 to 1 (≈ 0.883 to 1.77 µM) | 8 to 16 (≈ 14.1 to 28.3 µM) | 2 to 4 (≈ 3.53 to 7.06 µM) | 32 to 64 (≈ 56.5 to 113 µM) | 4 to 8 (≈ 7.06 to 14.1 µM)
